From article PMC11481871, “Discovery of GuaB inhibitors with efficacy against Acinetobacter baumannii infection” (mBio, 2024)
Values after ≈ are worked out from the molar mass of the structure shown. Values joined by “and” are separate entries in the source; they are usually repeats but may differ in a detail not shown here. Equal values may be shown once. Read-outs that look alike come from different tables or passages of the source.

Columns and labels:
A. baumannii GuaB = A. baumannii GuaB (Acinetobacter baumannii, UniProt D0CF46); assay: GuaB biochemical IC50
S. aureus GuaB = S. aureus GuaB (Staphylococcus aureus, UniProt P99106); assay: GuaB biochemical IC50
E. coli GuaB = E. coli GuaB (Escherichia coli, UniProt P0ADG7); assay: GuaB biochemical IC50
H. sapiens IMPDH2 = H. sapiens IMPDH2 (Homo sapiens, UniProt P12268); assay: IMPDH2 biochemical IC50
Staphylococcus aureus = assay: MIC, CLSI microdilution; type: cell-based; conditions: NRS 384 / USA300; Staphylococcus aureus USA300 NRS384; RPMI1640
[1] = test system: Staphylococcus epidermidis; assay: MIC, CLSI microdilution; type: cell-based; conditions: Staphylococcus epidermidis RP62A (ATCC35984); RPMI1640
Mycobacterium avium = assay: MIC, CLSI microdilution; type: cell-based; conditions: 336 h; Mycobacterium avium (ATCC25291); 7H9 + OADC, 14 days
[2] = test system: Mycobacterium tuberculosis H37Rv; assay: MIC, resazurin redox assay; type: cell-based; conditions: ATCC 27294 / H37Rv, 192 h, Mycobacterium tuberculosis H37Rv (ATCC27294)
Mycobacterium marinum = assay: MIC, CLSI microdilution; type: cell-based; conditions: 7H9 + OADC, 48 h
Mycobacterium smegmatis = assay: MIC, CLSI microdilution; type: cell-based; conditions: Mycolicibacterium smegmatis; Mycobacterium smegmatis mc2-155; 7H9 + OADC, 48 h
Enterococcus faecium = assay: MIC, CLSI microdilution; type: cell-based; conditions: Enterococcus faecium (ATCC700221); RPMI1640
Enterococcus faecalis = assay: MIC, CLSI microdilution; type: cell-based; conditions: Enterococcus faecalis (ATCC47077); RPMI1640
Bacillus subtilis = assay: MIC, CLSI microdilution; type: cell-based; conditions: RPMI1640
Pseudomonas aeruginosa = assay: MIC, CLSI microdilution; type: cell-based; conditions: 20 h; Pseudomonas aeruginosa PAO1; M9 + casamino acids + glucose
[3] = test system: Stenotrophomonas maltophilia; assay: MIC, CLSI microdilution; type: cell-based; conditions: 20 h; Stenotrophomonas maltophilia (ATCC700267); M9 + casamino acids + glucose
Acinetobacter baumannii = assay: MIC, CLSI microdilution; type: cell-based; conditions: 20 h, M9 + casamino acids + glucose
Escherichia coli = assay: MIC, CLSI microdilution; type: cell-based; conditions: 20 h; Escherichia coli UPEC CFT073; M9 + casamino acids + glucose
Citrobacter werkmanii = assay: MIC, CLSI microdilution; type: cell-based; conditions: 20 h; Citrobacter werkmanii (ATCC51114); M9 + casamino acids + glucose
Serratia marcescens = assay: MIC, CLSI microdilution; type: cell-based; conditions: 20 h; Serratia marcescens (ATCC29021); M9 + casamino acids + glucose
Enterobacter cloacae = assay: MIC, CLSI microdilution; type: cell-based; conditions: 20 h; Enterobacter cloacae (ATCC222); M9 + casamino acids + glucose
Enterobacter aerogenes = assay: MIC, CLSI microdilution; type: cell-based; conditions: Klebsiella aerogenes, 20 h; Enterobacter aerogenes (ATCC13048); M9 + casamino acids + glucose
Klebsiella pneumoniae = assay: MIC, CLSI microdilution; type: cell-based; conditions: ATCC43816, 20 h; Klebsiella pneumoniae (ATCC 43816); M9 + casamino acids + glucose
Proteus mirabilis = assay: MIC, CLSI microdilution; type: cell-based; conditions: 20 h; Proteus mirabilis (ATCC29906); M9 + casamino acids + glucose
[4] = test system: A. baumannii 19606 (wild-type); assay: microbe, parasite or virus in culture; type: cell-based, Acinetobacter baumannii; conditions: for MIC: Acinetobacter baumannii
[5] = test system: A. baumannii ΔadeJ (efflux-defective); assay: microbe, parasite or virus in culture; type: cell-based; conditions: Acinetobacter baumannii, read-out: Avg. MIC
[6] = test system: A. baumannii ΔlpxA (LPS-null); assay: MIC on LPS-null A. baumannii; type: cell-based; conditions: Acinetobacter baumannii, read-out: Avg. MIC
[7] = test system: Acinetobacter baumannii ATCC19606 GuaB mutants; assay: MIC on GuaBi-resistant A. baumannii 19606 guaB mutants; type: cell-based; conditions: for MIC: Acinetobacter baumannii; for Fold shift in MIC vs parental wild-type / MIC of resistant mutant: from fluctuation assay
[8] = test system: 41 different cellular targets; assay: Secondary pharmacology panel (Cerep Eurofins); type: binding; conditions: for Hits (>50% Binding) / Hits (>75% Binding): 41 targets
in vitro = type: cell-based, human; conditions: human
Description: (§1) Primary human hepatocytes were plated on 384-well, collagen-coated plates in incubation media with no serum or with 10% fetal bovine serum (FBS). Eighteen hours later, cells were treated with the test article at seven concentrations starting at 100 µM in twofold dilutions, chlorpromazine (positive control) at seven concentrations starting at 100 µM in twofold dilutions or aflatoxin (positive control) at seven concentrations starting at 25 µM in twofold dilutions. Cell viability was then assayed using the Promega Cell TiterGlo ATP Assay.

[9] = test system: Primary human hepatocytes; assay: in vitro; type: cell-based
Description: as §1

Chain of E. coli GuaB (P0ADG7 whole entry): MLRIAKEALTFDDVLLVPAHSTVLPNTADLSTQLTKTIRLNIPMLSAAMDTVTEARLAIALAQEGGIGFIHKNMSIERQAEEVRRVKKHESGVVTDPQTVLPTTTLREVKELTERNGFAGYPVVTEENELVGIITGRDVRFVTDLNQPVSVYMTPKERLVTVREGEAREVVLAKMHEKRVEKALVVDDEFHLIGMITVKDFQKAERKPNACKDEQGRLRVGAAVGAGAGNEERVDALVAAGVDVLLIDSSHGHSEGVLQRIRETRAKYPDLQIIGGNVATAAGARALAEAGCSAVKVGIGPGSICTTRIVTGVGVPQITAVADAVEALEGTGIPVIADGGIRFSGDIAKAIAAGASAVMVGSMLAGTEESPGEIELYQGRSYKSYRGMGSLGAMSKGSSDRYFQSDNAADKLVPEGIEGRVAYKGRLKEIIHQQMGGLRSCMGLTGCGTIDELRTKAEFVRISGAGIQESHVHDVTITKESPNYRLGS
Chain of A. baumannii GuaB (D0CF46 entry or part of it): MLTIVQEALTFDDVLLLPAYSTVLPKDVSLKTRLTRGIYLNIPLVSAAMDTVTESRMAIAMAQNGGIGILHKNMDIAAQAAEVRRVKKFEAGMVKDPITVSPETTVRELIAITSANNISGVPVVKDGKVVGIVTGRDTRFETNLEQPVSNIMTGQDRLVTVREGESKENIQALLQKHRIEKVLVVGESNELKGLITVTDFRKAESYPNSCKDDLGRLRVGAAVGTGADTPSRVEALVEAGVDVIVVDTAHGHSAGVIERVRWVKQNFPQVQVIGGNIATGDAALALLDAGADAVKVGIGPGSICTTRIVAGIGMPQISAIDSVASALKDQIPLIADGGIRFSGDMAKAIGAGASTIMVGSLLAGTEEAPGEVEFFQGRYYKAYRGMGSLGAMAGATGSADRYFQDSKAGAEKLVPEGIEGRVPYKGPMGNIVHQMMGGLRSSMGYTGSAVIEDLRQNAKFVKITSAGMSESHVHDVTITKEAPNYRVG
Chain of S. aureus GuaB (P99106 whole entry): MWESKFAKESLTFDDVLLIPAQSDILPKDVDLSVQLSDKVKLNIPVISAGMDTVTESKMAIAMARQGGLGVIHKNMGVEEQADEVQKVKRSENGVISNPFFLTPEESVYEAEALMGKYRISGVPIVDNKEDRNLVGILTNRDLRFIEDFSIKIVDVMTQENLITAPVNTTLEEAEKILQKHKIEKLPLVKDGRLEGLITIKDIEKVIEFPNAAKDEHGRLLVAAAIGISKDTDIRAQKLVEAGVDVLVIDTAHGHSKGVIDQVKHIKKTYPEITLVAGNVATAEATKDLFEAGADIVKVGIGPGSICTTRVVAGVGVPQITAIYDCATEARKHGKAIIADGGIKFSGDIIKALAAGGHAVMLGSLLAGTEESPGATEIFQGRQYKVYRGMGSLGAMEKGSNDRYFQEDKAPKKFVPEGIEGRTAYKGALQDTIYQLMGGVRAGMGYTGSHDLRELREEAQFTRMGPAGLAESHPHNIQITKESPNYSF

## C[C@H](Nc1ccc2ncc(CO)cc2c1)C(=O)Nc1ccc(Cl)c(N(C)C)c1 [G2, (2S)-N-[4-chloro-3-(dimethylamino)phenyl]-2-[[3-(hydroxymethyl)-6-quinolyl]amino]propanamide]
A. baumannii GuaB
  IC50: 0.63 nM
S. aureus GuaB
  IC50: 3.4 nM
E. coli GuaB
  IC50: 16 nM
H. sapiens IMPDH2
  IC50: > 50000 nM
Staphylococcus aureus
  MIC: 1.6 µM (≈ 0.638 µg/mL)
[1]
  MIC: 0.4 µM (≈ 0.16 µg/mL)
Mycobacterium avium
  MIC: 12.5 µM
[2]
  MIC: 2.5 µM (≈ 0.997 µg/mL)
Mycobacterium marinum
  MIC: 0.1 µM
Mycobacterium smegmatis
  MIC: 1.3 µM
Enterococcus faecium
  MIC: 5.2 µM (≈ 2.07 µg/mL)
Enterococcus faecalis
  MIC: 0.3 µM (≈ 0.12 µg/mL)
Bacillus subtilis
  MIC: 13.8 µM (≈ 5.5 µg/mL)
Pseudomonas aeruginosa
  MIC: > 100 µM
[3]
  MIC: 38 µM
Acinetobacter baumannii
  MIC: 3.1 µM
Escherichia coli
  MIC: > 100 µM
Citrobacter werkmanii
  MIC: > 100 µM
Serratia marcescens
  MIC: > 100 µM
Enterobacter cloacae
  MIC: > 100 µM
Enterobacter aerogenes
  MIC: > 100 µM
Klebsiella pneumoniae
  MIC: > 100 µM
Proteus mirabilis
  MIC: > 100 µM
[4]; 24 h, M9 media + 100µM guanine, 24 hours, read-out: A.b.19606 Average CLSI MIC (n=3)
  MIC: > 100 µM
[4]; 24 h, M9 media, 24 hours, read-out: A.b.19606 Average CLSI MIC (n=3)
  MIC: 4.2 µM (≈ 1.68 µg/mL)
[4]; A. baumannii 19606 wild-type (Fig 3D), read-out: Avg. MIC
  MIC: 2 µM (≈ 0.798 µg/mL)
[4]; guaB allele wild-type, M9 media (cross-resistance table), read-out: A.b.19606 Average CLSI MIC (n=3)
  MIC: 4.2 µM (≈ 1.68 µg/mL)
[4]; guaB allele wild-type
  GuaBi CLSI MIC fold change from parent strain: 1
[5]
  MIC: 0.04 µM (≈ 0.016 µg/mL)
[6]
  MIC: 0.07 µM (≈ 0.0279 µg/mL)
[7]; ATCC19606, read-out: A.b.19606 Average CLSI MIC (n=3), guaB allele P25A, M9 media
  MIC: 66.7 µM (≈ 26.6 µg/mL)
[7]; ATCC19606, read-out: A.b.19606 Average CLSI MIC (n=3), guaB allele P25S, M9 media
  MIC: 66.7 µM (≈ 26.6 µg/mL)
[7]; ATCC19606, read-out: A.b.19606 Average CLSI MIC (n=3), guaB allele Y445C, M9 media
  MIC: 50 µM (≈ 19.9 µg/mL)
[7]; ATCC19606, read-out: A.b.19606 Average CLSI MIC (n=3), guaB allele Y445N, M9 media
  MIC: > 100 µM
[7]; ATCC19606, read-out: A.b.19606 Average CLSI MIC (n=3), guaB allele Y445S, M9 media
  MIC: > 100 µM
[7]; ATCC19606, read-out: MIC of resistant mutant, resistance allele P25A, from fluctuation assay
  MIC: 50 µM
[7]; ATCC19606, read-out: MIC of resistant mutant, resistance allele P25S, from fluctuation assay
  MIC: 50 µM
[7]; ATCC19606, read-out: MIC of resistant mutant, resistance allele Y445C, from fluctuation assay
  MIC: 50 µM
[7]; ATCC19606, read-out: MIC of resistant mutant, resistance allele Y445S, from fluctuation assay
  MIC: 100 µM
[7]; GuaBi-resistant mutants
  shifts in MIC conferred by on-target mutations: ≥ 32 fold
[7]; guaB allele P25A
  GuaBi CLSI MIC fold change from parent strain: 16
[7]; guaB allele P25S
  GuaBi CLSI MIC fold change from parent strain: 16
[7]; guaB allele Y445C
  GuaBi CLSI MIC fold change from parent strain: 12
[7]; guaB allele Y445N
  GuaBi CLSI MIC fold change from parent strain: >25
[7]; guaB allele Y445S
  GuaBi CLSI MIC fold change from parent strain: >25
[7]; resistance allele P25A
  Fold shift in MIC vs parental wild-type: 32, 32, 32
[7]; resistance allele P25S
  Fold shift in MIC vs parental wild-type: 32, 32, 32 and 32
  MIC of resistant mutant: 50 µM
[7]; resistance allele Y445C
  Fold shift in MIC vs parental wild-type: 32, 32, 32 and 64
  MIC of resistant mutant: 100 µM
[7]; resistance allele Y445S
  Fold shift in MIC vs parental wild-type: 64
[8]
  in vitro safety profile: promiscuity: low promiscuity
  in vitro safety profile: selectivity: good selectivity
[8]; 10µM
  Promiscuity Risk: 0%
  Selectivity Risk: 0%
  Hits (>50% Binding): 0
  Hits (>75% Binding): 0
[8]; 50µM
  Promiscuity Risk: 0%
  Selectivity Risk: 3%
  Hits (>50% Binding): 1
  Hits (>75% Binding): 0
In vitro; General cytotoxicity IC50, Serum
  IC50 at 2 day: > 100000 nM
In vitro; General cytotoxicity IC50, Serum-Free
  IC50 at 2 day: > 100000 nM
[9]
  in vitro safety profile: cytotoxicity: low cytotoxicity
